Experimental data published in patent publication US20260234107A1, “TRYPTAMINES AND METHODS OF TREATING MOOD DISORDERS” (priority 2022, published 2026).
Like-named read-outs stand apart in the source and are kept apart here.

Columns and labels:
[1] = Metabolic stability in human liver microsomes (HLM); set-up: microsomal CLint / half-life: dose or concentration left out as unconfirmed; details: for half-life / microsomal CLint: both, human, pooled human liver microsomes, pH 7.4
[2] = Plasma pharmacokinetics in rats after intravenous administration; details: for AUC(0-t) / C0 / half-life: male, Sprague Dawley, rat, plasma, iv, 1 mg/kg; for plasma half-life (in words): rats, IV 1 mg/kg
[3] = Stability in rat brain homogenate; format: in vitro ADME, male Sprague Dawley rats; details: rat brain homogenate, 1 μM, 37° C.; for half-life at 1 µM: male, Sprague Dawley
Experimental: Disclosed compounds were tested for stability in rat brain homogenate (Table 8). There was widely variable stability among the test compounds under the conditions of the experiment.
(§1) Rat Brain Homogenate Stability. Frozen rat brain homogenate (pooled from male Sprague Dawley rats, BioreclamationIVT, RAT00BRAINMZA) was thawed in a water bath at 37° C. immediately prior to use. Positive controls and test compounds (final concentration in incubation medium=1 μM for test compounds and 2 μM for controls, all with 2% DMSO) were incubated in duplicate for each time point (0, 10, 30, 60, and 120 min) in the rat brain homogenate at a total reaction volume of 100 μL at 37° C. At the end of each incubation period, reactions were immediately quenched with 400 μL of acetonitrile containing internal standard (200 ng/mL tolbutamine and 200 ng/mL labetalol) and mixed thoroughly. Plates were then sealed, shaken for 20 min, and centrifuged at 4,000 rpm and 4° C. for 20 min. Aliquots of 50 μL of each supernatant were diluted into 100 μL of water and the mixtures were then shaken again for 10 min.

[4] = tested on: monoamine oxidase A and B (MAO-A and MAO-B); assay: Stability in the presence of monoamine oxidases (human liver mitochondria preparation); set-up: half-life / microsomal CLint: dose or concentration left out as unconfirmed; details: for stability in the presence of MAO (in words): human liver mitochondria preparation; for Remaining (t = 60 min) / half-life / microsomal CLint: human liver mitochondria; for half-life / microsomal CLint: human, pH 7.4; for CLint(MAO) / t1/2: human liver mitochondria 0.30 mg protein/mL, 37° C.
Experimental: Liver Mitochondria Incubations. Human liver mitochondria (Xenotech H0610.M) were used.

[5] = Stability in mouse brain homogenate; format: in vitro ADME, male CD-1 mice; details: mouse brain homogenate, 1 μM, 37° C.; for half-life at 1 µM: male, CD-1
Experimental: Disclosed compounds were tested for stability in mouse brain homogenate (Table 7). There was widely variable stability among the test compounds under the conditions of the experiment.
as §1, with “Mouse Brain” for “Rat Brain”, “Frozen mouse” for “Frozen rat”, “male CD-1 mice,” for “male Sprague Dawley rats,”, “BioreclamationIVT, MSE00BRAINMZA)” for “BioreclamationIVT, RAT00BRAINMZA)”, “the mouse” for “the rat”

[6] = target: T1, 5-HT2B (Homo sapiens, UniProt P41595); assay: FLIPR Ca2+ flux agonist assay at 5-HT2B; format: cell-based; details: Ca2+ flux; for 5-HT2B % Act @ Max Dose: HEK293, max dose
T1 construct: host or cells: HEK293
T1 sequence (P41595 whole entry, species assumed): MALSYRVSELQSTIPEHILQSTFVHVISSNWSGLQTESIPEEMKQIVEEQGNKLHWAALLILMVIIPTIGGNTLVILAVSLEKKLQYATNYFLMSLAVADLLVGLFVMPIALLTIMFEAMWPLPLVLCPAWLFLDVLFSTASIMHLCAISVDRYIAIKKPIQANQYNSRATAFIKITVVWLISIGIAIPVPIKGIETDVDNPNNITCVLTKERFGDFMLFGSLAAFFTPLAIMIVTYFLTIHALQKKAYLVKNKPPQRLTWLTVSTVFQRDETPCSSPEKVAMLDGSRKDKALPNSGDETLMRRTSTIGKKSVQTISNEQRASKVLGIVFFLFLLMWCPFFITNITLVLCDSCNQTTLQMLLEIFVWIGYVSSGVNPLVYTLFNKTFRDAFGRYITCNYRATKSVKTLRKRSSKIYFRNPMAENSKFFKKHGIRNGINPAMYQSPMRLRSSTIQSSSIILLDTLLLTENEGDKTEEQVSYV
Experimental: (§2) A solution of 250 mM probenecid in 1 mL FLIPR assay buffer was prepared fresh. This was combined with a fluorescent dye (Fluo-4 Direct™) to make a final assay concentration of 2.5 mM. […] The fluorescent dye was then added to the assay plate along with assay buffer to a final volume of 40 μL. The cell plate was incubated for 50 min at 37° C. and 5% CO2 and placed into the FLIPR Tetra along with the compound plate. 10 μL of references and compounds were then transferred from the compound plate into the cell plate and the fluorescent signal was read.

[7] = tested on: rat synaptosomes; assay: Serotonin (5-HT) release from rat synaptosomes; format: biochemical, Male Sprague-Dawley rats; details: for EC50: rat synaptosomes preloaded with [3H]5-HT; for % Release @ Max Dose (10 μM): rat synaptosomes
Experimental: Disclosed compounds were assessed for their ability to release serotonin (5-HT) from […] (Table 9). Potency and efficacy for 5-HT release varied substantially depending on the specific compound. […] However, there was also substantial variability among 4-hydroxy compounds.
Synaptosome 5-HT Release Assay. Synaptosome release assays were conducted according to modifications of previously described procedures (Partilla et al. (2016). Interrogating the Activity of Ligands at Monoamine Transporters in Rat Brain Synaptosomes. In Neurotransmitter Transporters (pp. 41-52). Springer.). Briefly, synaptosomes were prepared from rat brains. Male Sprague-Dawley rats were rendered unconscious with CO2 and their brains were immediately removed. The cerebella were discarded and the whole brains (minus striatum) were placed in ice-cold 0.32 M sucrose (10 mL per brain) and gently homogenized by hand. The homogenate of each brain was centrifuged at 1,000×g at 4° C. for 10 mins and the resulting supernatant was diluted with ice-cold 0.32 M sucrose to a total volume of 10 mL to provide the synaptosome solution. Synaptosomes were then preloaded with 5 nM [^3H]5-HT in the presence of selective uptake inhibitors of DAT (50 nM GBR12935), NET (100 nM nomifensine), and VMAT2 (1 μM reserpine) in Krebs phosphate buffer (KPB). The incubations were allowed to reach equilibrium for 2 h at 25° C. For the release reactions, 425 μL of preloaded synaptosomes were added to test tubes containing 75 μL of test drugs diluted in KPB containing 1 mg/mL BSA. After 10 mins, the release reaction was stopped using a cell harvester by rapid vacuum filtration over GF/B filter paper presoaked in wash buffer (10 mM Tris-HCl, pH 7.4, 150 mM NaCl) and the filters were washed with additional wash buffer. Filters were dried for 1 h at 60° C. and retained radioactivity was quantified using a MicroBeta 2 liquid scintillation counter. The amount of retained radioactivity was inversely proportional to the extent of release.

[8] = target: T2, 5-HT2C receptor (Homo sapiens, UniProt P28335); assay: cell-based; format: cell-based; details: Ca2+ flux
T2 sequence (P28335 33-458): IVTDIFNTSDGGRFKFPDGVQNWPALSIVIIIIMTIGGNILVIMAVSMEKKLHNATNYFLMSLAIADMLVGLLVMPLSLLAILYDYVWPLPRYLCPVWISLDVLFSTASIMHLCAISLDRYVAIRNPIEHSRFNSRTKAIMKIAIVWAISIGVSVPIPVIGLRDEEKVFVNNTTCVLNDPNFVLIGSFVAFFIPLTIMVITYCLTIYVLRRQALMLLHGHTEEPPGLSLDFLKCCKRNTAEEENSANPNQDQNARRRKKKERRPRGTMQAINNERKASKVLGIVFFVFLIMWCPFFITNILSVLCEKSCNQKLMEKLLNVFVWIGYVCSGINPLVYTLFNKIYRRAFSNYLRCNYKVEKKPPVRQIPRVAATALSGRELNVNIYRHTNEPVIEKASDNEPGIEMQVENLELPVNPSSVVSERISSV

[9] = Plasma pharmacokinetics in mice after subcutaneous administration; format: in vivo, male C57BL/6 mice; details: plasma, male C57BL/6 mice, SC 10 mg/kg
From the text: Animals. […] Four mice were housed in each cage. […] All animals were provided laboratory rodent diet. […] Animals were randomly assigned to treatment groups.

[10] = target: T3, 5-HT1A (Homo sapiens, UniProt P08908); assay: FLIPR Ca2+ flux agonist assay at 5-HT1A; format: cell-based
T3 construct: host or cells: CHO cells
T3 sequence (P08908 1-422): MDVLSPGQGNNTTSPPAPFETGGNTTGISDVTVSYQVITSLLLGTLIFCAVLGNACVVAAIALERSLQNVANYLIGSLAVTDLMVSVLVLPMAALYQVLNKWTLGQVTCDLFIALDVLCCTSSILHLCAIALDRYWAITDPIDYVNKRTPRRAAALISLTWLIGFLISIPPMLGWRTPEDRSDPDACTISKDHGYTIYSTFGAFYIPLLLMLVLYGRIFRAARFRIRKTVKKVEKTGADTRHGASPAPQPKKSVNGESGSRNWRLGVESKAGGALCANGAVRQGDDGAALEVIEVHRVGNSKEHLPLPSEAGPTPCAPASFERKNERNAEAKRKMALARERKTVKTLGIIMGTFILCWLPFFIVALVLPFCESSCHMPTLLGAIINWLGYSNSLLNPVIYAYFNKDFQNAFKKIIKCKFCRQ
Experimental: as §2

[11] = target: T4, 5-HT2A (Homo sapiens, UniProt P28223); assay: FLIPR Ca2+ flux agonist assay at 5-HT2A; format: cell-based; set-up: host or cells: HEK293; details: Ca2+ flux, HEK293; read-out: 5-HT2A EC50
T4 sequence (P28223 whole entry): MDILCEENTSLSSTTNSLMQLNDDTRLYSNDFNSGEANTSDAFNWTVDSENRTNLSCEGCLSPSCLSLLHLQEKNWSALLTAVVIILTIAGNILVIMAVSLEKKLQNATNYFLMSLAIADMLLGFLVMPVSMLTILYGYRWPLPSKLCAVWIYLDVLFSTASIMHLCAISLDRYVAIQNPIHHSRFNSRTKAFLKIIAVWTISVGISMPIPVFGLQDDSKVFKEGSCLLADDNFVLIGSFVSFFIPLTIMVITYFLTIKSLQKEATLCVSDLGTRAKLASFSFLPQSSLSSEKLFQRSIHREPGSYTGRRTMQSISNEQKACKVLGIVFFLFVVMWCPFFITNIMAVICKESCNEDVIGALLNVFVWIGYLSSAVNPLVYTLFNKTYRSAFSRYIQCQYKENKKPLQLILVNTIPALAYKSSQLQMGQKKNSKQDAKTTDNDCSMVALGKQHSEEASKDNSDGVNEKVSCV
Experimental: as §2

[12] = target: T4, 5-HT2A; assay: 5-HT2A receptor radioligand binding ([3H]ketanserin)
Experimental: The binding affinities of disclosed compounds at the ketanserin binding site of the 5-HT2A receptor were determined in radioligand binding experiments.
Method. Affinity of the test compounds for the 5-HT2A receptor was determined in radioligand binding experiments with [^3H]ketanserin by WuXi AppTec (Hong Kong) Limited, using methods adapted from the literature and under conditions described in Table 4.

[13] = HLM 0.50 mg protein/mL, NADPH, 37° C., 60 minutes

SMILES	half-life [1] [h]	microsomal CLint [1] [µL/min/mg]	AUC(0-t) [2] [ng·h/mL]	C0 [2] [ng/mL]	half-life [2] [h]	plasma half-life (in words) [2]	half-life at 1 µM [3] [h]	% Compound Remaining (after 120 min) [3] [%]	stability in the presence of MAO (in words) [4]	Remaining (t = 60 min) [4] [%]	half-life [4] [h]	microsomal CLint [4] [µL/min/mg]	% Compound Remaining (after 120 min) [5] [%]	5-HT2B % Act @ Max Dose [6] [%]	CLint(MAO) [4] [µL/min/mg]	t1/2 [4] [h]	EC50 [7] [nM]	% Release @ Max Dose (10 μM) [7] [%]	EC50 [8] [nM]	5-HT1A % Act @ Max Dose ([10]; Ca2+ flux, CHO cells) [%]	also measured
CNCCc1c[nH]c2cccc(O)c12 [Compound 2, 3-(2-(methylamino)ethyl)-1H-indol-4-ol]	0.22	105	21	185	0.18	very short half-lives	0.105	0.2	highly unstable	12.8	0.312	124	0.2								half-life at 1 µM [5]: 0.233 h
CCN(C)CCc1c[nH]c2cccc(O)c12 [Compound 4-HO-MET, reference compound]								20.9	stable	112.3			16.7	1.1	<15.9	>2.42	496	56.9	37.8		Clint [1, 13]: <9.6 µL/min/mg; t1/2 [1, 13]: >2.42 h; t1/2 [3]: 0.883 h; t1/2 [5]: 0.763 h; 5-HT2C % Act @ Max Dose [8]: 95.0%; AUC(0-t) ([9]; mouse): 1410 ng·h/mL; Cmax ([9]; mouse): 1160 ng/mL; Tmax [9]: 4.8 min; t1/2 [9]: 1.1 h
CCNCCc1c[nH]c2cccc(O)c12 [Compound 5, 3-(2-(ethylamino)ethyl)-1H-indol-4-ol]	> 2.42	< 9.6	161	350	0.65		2.63	61.5		76.2	> 2.42	< 15.9	67.2				4060	53.8			half-life at 1 µM [5]: 3.06 h
CCCN(CC)CCc1c[nH]c2ccccc12 [EPT, N-ethyl-N-propyltryptamine, reference compound]									more stable	95.1				80.4	<15.9	>2.42	264	45.02	33.4	75.5	EC50 ([10]; Ca2+ flux, CHO cells, ND = not determined due to lack of measurable agonism, read-out: 5-HT1A EC50): 88700 nM; EC50 ([6]; HEK293, ND = not determined due to lack of measurable agonism, read-out: 5-HT2B EC50): 40.3 nM; EC50 [11]: 30.5 nM; 5-HT2C % Act @ Max Dose [8]: 90.8%
CCN(C)CCc1c[nH]c2ccccc12 [MET, N-methyl-N-ethyltryptamine, reference compound]									more stable	84.5				11.9	<15.9	>2.42	183	71.00	28.3	71.4	EC50 [10]: 57900 nM; Ki [12]: 128 nM; EC50 [11]: 17.1 nM
CN(C)CCc1c[nH]c2cccc(O)c12 [Psilocin, psilocin, reference compound]			146	179	1.56	much longer half-lives		46.1	stable	112.1			97.6		<15.9	>2.42				0.720	t1/2 [3]: 1.913 h; t1/2 [5]: >4.818 h
